Here are results for 40 compounds from US5607850A, “Enzyme from microbial source: phthalyl amidase” (Eli Lilly and Company, priority 1995, dated 1997).

In experiment [1] the target is T1, phthalyl amidase (Xanthobacter agilis, UniProt P0C2Y0). The experiment is described as follows: Influence of effectors and organic solvents on phthalyl amidase activity. The format is biochemical. Conditions: for % of Control Activity: 1 mM agent. The protocol: A typical reaction mixture consisted of 1 ml total volume and contained 0.1 mM III, 0.1 μM phthalyl amidase in 50 mM potassium phosphate buffer (pH 5.5-9.0) at 32° C. for 20 minutes. The reactions were stopped by the addition of 1 ml methanol. After removal of precipitate by centrifugation, an aliquot of the supernatant fraction (typically 30 μl) was monitored for the beta-lactam nucleus and phthalic acid by HPLC using a Zorbax C8 column (0.46×15 cm; MacMod Analytical Inc., Chadds Ford, Pa.). The two reaction products were eluted by a mobile phase constructed as continuous mixed gradients from (a) 1% ACN (acetonitrile)/0.2% TFA (trifluoroacetic acid) and (b) 80% ACN/0.2% TFA as follows: 1) 0% (b), 3min; 2) 0-50% (b), 0.5 min; 3) 50-100% (b), 3 min; 4) 100% (b), 2.5 min; 5) 100-1% (b), 0.1 min; and 6) 0% (b), 5 min.
The effect of various agents on the enzymatic activity of phthalyl amidase was determined using standard conditions (see Example 5). All agents were tested at 1 mM final concentration unless otherwise indicated.

Experiment [2] has as its target T1, phthalyl amidase. The experiment is described as follows: Substrate specificity of phthalyl amidase (Tables 9-11). Conditions: for Relative Activity: 30° C., pH 8.0. Type of experiment: biochemical. The protocol: the activity of phthalyl amidase against 25 compounds was determined. The compounds were divided into beta-lactams (Table 9), phthalyl amides (Table 10), and aromatic ring substituted amides (Table 11). Each reaction mixture (1 ml total volume) contained 2.5 μmol of compound and 0.3 units of enzyme (based on the chromogenic substrate) of the preparative scale purified enzyme, in 50 mM phosphate buffer, pH 8.0. The reactions were conducted at 30° C. Samples of the reaction mixture were taken at various times, and methanol (equal value) was added to stop the reaction. The samples were examined by HPLC to determine the extent of substrate hydrolysis. The amount of compound hydrolyzed was calculated from a standard curve of the test compound. All substrates were stable in buffer at 30° C. and pH 8.0 in the absence of enzyme for 24 hours.

A further experiment has as its system Xanthobacter agilis. The experiment is described as follows: Induction of phthalyl amidase in cultures of Xanthobacter agilis (Table 1). Type of experiment: cell-based. Conditions: for effect on wet weight cell mass: 48 hours growth. How it is done: Three compounds at different concentrations were added to aerated cultures of the organism growing at 30° C. in Bac MI medium. The compounds tested were phthalate (PAA), phthalyl glycine (PAG), and PMBL. Cells of Xanthobacter agilis were grown with aeration for 24 hours. This vegetative culture was used to inoculate Bac MI medium (50 ml) containing different concentrations of the compounds to be tested. After 48 hours growth under standard conditions, cells were harvested by centrifugation and wet weight of the cells was determined. Crude cell extracts were prepared by lysozyme treatment of the cells as in Example 1. Suspensions were briefly sonicated to break up the viscous suspension. A cell-free supernatant was obtained by centrifugation of the suspension at 14,000 rpm for 15 minutes.
Enzyme activity in cell-free lysates was determined by monitoring conversion of the chromogenic substrate 4-(2'-carboxy-N-benzoyl)amino-2-carboxy-nitrobenzene (II) to 2-nitro-5-amino benzoic acid and phthalic acid, a reaction catalyzed by phthalyl amidase as shown below: [drawing 4]
The assay reaction mixture (1 ml) consisted of 0.3 μmol of the chromogenic substrate (II) and 0.001-0.5 μg of enzyme preparation in 50 mM potassium phosphate buffer, pH 8.0 (buffer A). The enzymatic reaction was conducted at 30° C. for 10 minutes and the appearance of product was monitored at 380 nm (or 430 nm). The amount of substrate hydrolyzed was calculated from a standard curve of the amine product.

The mark [3] stands for this setting: Table 11, aromatic ring substituted amides.

Each structure is given as a SMILES string. “Also recorded” adds a separate entry of the source. Where two headings read alike, the source gives them in different places.

T1 sequence (P0C2Y0 2-453): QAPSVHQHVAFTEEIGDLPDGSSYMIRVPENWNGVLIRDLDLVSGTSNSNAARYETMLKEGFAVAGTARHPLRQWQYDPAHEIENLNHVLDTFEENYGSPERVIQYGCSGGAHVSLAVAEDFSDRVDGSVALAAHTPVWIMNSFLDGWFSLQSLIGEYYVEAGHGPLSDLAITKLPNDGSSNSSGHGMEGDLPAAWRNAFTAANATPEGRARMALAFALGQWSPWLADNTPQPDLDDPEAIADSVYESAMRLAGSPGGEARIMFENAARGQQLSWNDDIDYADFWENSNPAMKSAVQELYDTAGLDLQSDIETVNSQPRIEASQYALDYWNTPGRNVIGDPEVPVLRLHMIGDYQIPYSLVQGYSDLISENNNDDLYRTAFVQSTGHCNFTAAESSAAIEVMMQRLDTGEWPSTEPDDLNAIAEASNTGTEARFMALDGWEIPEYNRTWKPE

Regarding `[Cl-].[Cl-].[Mg+2]` [MgCl2], the “% of Control Activity” value on phthalyl amidase [1] was found to be 102%. The same measure, in the same setting: under `[Cl][Ni][Cl]` [NiCl2] stands 94%. In the case of `O=C(O)c1cc[c]([Hg][OH])cc1` [p-HMB, parahydroxy mercuric benzoate], the “% of Control Activity” value at phthalyl amidase [1] is given as 65%. In addition, at phthalyl amidase [1] (1 mM, iodoacetic acid 10 mM), the “effect on enzyme activity” value is listed as “exert inhibitory activity; also recorded: significantly reduced phthalyl amidase activity; also recorded: significantly inhibited the enzyme”.

Consider `CC(C)NC(=O)c1ccccc1C(=O)O` [XII], for which the “Relative Activity” value at phthalyl amidase [2] (Table 10, phthalyl amides) is 9.7. With `c1cnc2c(c1)ccc1cccnc12` [Phenanthroiine, phenanthroline], the “effect on enzyme activity” value at phthalyl amidase [1] (1 mM, iodoacetic acid 10 mM) is given as “little or no effect on enzyme activity”.

For the compound `[Cl-].[Cl-].[Co+2]` [CoCl2], the “% of Control Activity” value at phthalyl amidase [1] is on record as 101%. Turning to `CCCCCCC(C(=O)O)n1cnc(NC(=O)c2ccccc2)c1` (stereo not drawn) [XXVIII], the “Relative Activity” value on phthalyl amidase [2] (setting [3]) is 0. For `CCCCCCC(C(=O)O)n1cnc(NC(=O)c2ccccc2C(=O)O)c1` (stereo not drawn) [XIII], the “acceptance as substrate of the enzyme” value on phthalyl amidase [2] is given as “most active compound found”. Also, the “Relative Activity” value on phthalyl amidase [2] (Table 10, phthalyl amides) is 1027.2. Consider `CCCCCCC(C(=O)O)n1cnc(NC(=O)c2cccc(O)c2)c1` (stereo not drawn) [XXVI], for which, at phthalyl amidase [2] (setting [3]), the “Relative Activity” value worked out at 0. As for `O=C(O)c1ccccc1C(=O)NCc1ccccc1`, the “Relative Activity” value on phthalyl amidase [2] (Table 10, phthalyl amides) was found to be 40.2. `[Ca+2].[Cl-].[Cl-]` [CaCl2]: the “% of Control Activity” value at phthalyl amidase [1] is 89%. On to `CCCCCCC(C(=O)O)n1cnc(NC(=O)c2cccc(C(=O)O)c2)c1` (stereo not drawn) [XXIV], for which the “acceptance as substrate of the enzyme” value at phthalyl amidase [2] is “completely eliminates hydrolytic activity”. Moreover, the “Relative Activity” value on phthalyl amidase [2] (setting [3]) was 0.

Take `O=C(O)c1ccccc1C(=O)Nc1ccc([N+](=O)[O-])cc1` [VIII]: the “Relative Activity” value on phthalyl amidase [2] (Table 10, phthalyl amides) is reported as 544.6.

Take `O=C(O)CN1C(=O)C(NC(=O)COc2ccccc2)C1CCc1ccco1` (stereo not drawn) [IV]: the Relative Activity at phthalyl amidase [2] (Table 9, beta-lactams) stood at 0. For the compound `[Cl][Mn][Cl]` [MnCl2], at phthalyl amidase [1], the “% of Control Activity” value turned out to be 84%. Consider `[Cl][Fe]([Cl])[Cl]` [FeCl3], for which, at phthalyl amidase [1], the “% of Control Activity” value amounted to 96%. Consider `[Cl][Cu][Cl]` [CuCl2], for which the “% of Control Activity” value at phthalyl amidase [1] amounted to 36%. The “effect on enzyme activity” value at phthalyl amidase [1] (1 mM, iodoacetic acid 10 mM, listed as Cu^++) is on record as “exert inhibitory activity; also recorded: significantly inhibited the enzyme”; on phthalyl amidase [1] (1 mM, iodoacetic acid 10 mM, listed as copper ions), “significantly reduced phthalyl amidase activity”. On to `CSCCC(NC(=O)c1ccccc1C(=O)O)C(=O)O` (racemic) [XV], for which the “Relative Activity” value on phthalyl amidase [2] (Table 10, phthalyl amides) is 220.1.

In the case of `[Cl-].[Cl-].[Zn+2]` [ZnCl2], the “% of Control Activity” value on phthalyl amidase [1] turned out to be 100%. `O=C(O)C1=C(Cl)CCC2C(NC(=O)c3ccccc3C(=O)O)C(=O)N12` (stereo not drawn) [VII]: the “Relative Activity” value on phthalyl amidase [2] (Table 10, phthalyl amides) came to 100.0. For the compound `O=C(O)c1ccccc1C(=O)O` [PAA, phthalate], the Cell weight is reported as 0.35 g/50 ml in the experiment with Xanthobacter agilis (addition 1 mg/ml), 0.47 g/50 ml in the experiment on Xanthobacter agilis (addition 2 mg/ml), 0.7 g/50 ml in the experiment with Xanthobacter agilis (addition 5 mg/ml) and 0.6 g/50 ml with Xanthobacter agilis (addition 10 mg/ml). Besides, the Total units/mg protein was determined as 1.4 µmol/min/mg with Xanthobacter agilis (addition 1 mg/ml), 4.3 µmol/min/mg in the experiment with Xanthobacter agilis (addition 2 mg/ml), 3.7 µmol/min/mg with Xanthobacter agilis (addition 5 mg/ml) and 12.0 µmol/min/mg with Xanthobacter agilis (addition 10 mg/ml). For the same compound, the Units/g/cells in the experiment with Xanthobacter agilis (addition 1 mg/ml) was determined as 3.9 Units/g/cells; with Xanthobacter agilis (addition 2 mg/ml), 9.3 Units/g/cells; in the experiment with Xanthobacter agilis (addition 5 mg/ml), 5.5 Units/g/cells; with Xanthobacter agilis (addition 10 mg/ml), 19.8 Units/g/cells. `CCCCCCC(C(=O)O)n1cnc(NC(=O)c2ncccc2C(=O)O)c1` (stereo not drawn) [Compound XX]: the “acceptance as substrate of the enzyme” value on phthalyl amidase [2] was “acceptable”. The “Relative Activity” value at phthalyl amidase [2] (setting [3]) was found to be 85.9. With `CCCCCCC(C(=O)O)n1cnc(NC(=O)c2ccccc2O)c1` (stereo not drawn) [XXV], the “Relative Activity” value at phthalyl amidase [2] (setting [3]) is on record as 0. Take `O=C(O)CNC(=O)c1ccccc1C(=O)O` [PAG, phthalyl glycine]: the “effect on wet weight cell mass” value in the experiment on Xanthobacter agilis was “increased the wet weight cell mass”. In the experiment with Xanthobacter agilis (addition 1 mg/ml), this compound gave a Cell weight of 0.33 g/50 ml, a Total units/mg protein of 0.35 µmol/min/mg and a Units/g/cells of 1.04 Units/g/cells. Further, in the experiment with Xanthobacter agilis (addition 5 mg/ml), the Cell weight is 0.5 g/50 ml, the Total units/mg protein came out at 4.4 µmol/min/mg and the Units/g/cells is recorded as 9.4 Units/g/cells. `O=C(O)CN1C(=O)C(NC(=O)Cc2ccccc2)C1CCc1ccco1` (stereo not drawn) [V] yielded a Relative Activity on phthalyl amidase [2] (Table 9, beta-lactams) of 0. Consider `OCC(O)CO` [Glycerol], for which, at phthalyl amidase [1] (10% solvent), the “effect of solvent on enzyme activity” value was “least amount of inhibition of the enzyme”. Turning to `CCCCCCC(C(=O)O)n1cnc(NC(=O)c2cc(O)cc(O)c2)c1` (stereo not drawn) [XXVII], the “Relative Activity” value on phthalyl amidase [2] (setting [3]) amounted to 0.

For the compound `O=C(O)CN1C(=O)C(NC(=O)c2ccccc2C(=O)O)C1CCc1ccco1` (stereo not drawn) [PMBL, phthalyl monocyclic beta-lactam], the “effect on wet weight cell mass” value with Xanthobacter agilis is listed as “had no effect”. In addition, in the experiment with Xanthobacter agilis (addition 1 mg/ml), the Cell weight was 0.35 g/50 ml, the Total units/mg protein was 0.28 µmol/min/mg and the Units/g/cells is 0.79 Units/g/cells. In the experiment with Xanthobacter agilis (addition 5 mg/ml), this compound registered a Cell weight of 0.24 g/50 ml, a Total units/mg protein of 2.0 µmol/min/mg and a Units/g/cells of 8.1 Units/g/cells. Turning to `O=C(O)CN1C(=O)C(NC(=O)c2ccccc2C(=O)O)C1CCc1ccco1` (stereo not drawn) [drawing 6], the Relative Activity at phthalyl amidase [2] (Table 9, beta-lactams) worked out at 47.9.

Consider `O=C(O)CN(CCN(CC(=O)O)CC(=O)O)CC(=O)O` [EDTA], for which the “effect on enzyme activity” value at phthalyl amidase [1] is “little or no effect on enzyme activity”. Take `CCCCCCC(C(=O)O)n1cnc(NC(=O)c2cccc(O)c2C(=O)O)c1` (stereo not drawn) [XXI]: at phthalyl amidase [2], the “acceptance as substrate of the enzyme” value is listed as “acceptable”. The “Relative Activity” value on phthalyl amidase [2] (setting [3]) was 1.3. Take `O=C(O)CI` [Iodoacetate]: the “effect on enzyme activity” value on phthalyl amidase [1] is reported as “exert inhibitory activity; also recorded: significantly reduced phthalyl amidase activity; also recorded: significantly inhibited the enzyme”.

For `[Cl][Fe][Cl]` [FeCl2], on phthalyl amidase [1], the “% of Control Activity” value turned out to be 102%. For the compound `CCCCCCC(C(=O)O)n1cnc(NC(=O)c2ccc(C(=O)O)cc2)c1` (stereo not drawn) [XXIII], the “acceptance as substrate of the enzyme” value on phthalyl amidase [2] was “completely eliminates hydrolytic activity”. Besides, the “Relative Activity” value at phthalyl amidase [2] (setting [3]) was found to be 0. For `CCCCCCC(C(=O)O)n1cnc(NC(=O)c2ccccc2-c2nn[nH]n2)c1` (stereo not drawn) [XXII], in that order: “Low levels of hydrolysis” and 0.2. On to `COC(=O)[C@H](Cc1ccccc1)NC(=O)[C@H](CC(=O)O)NC(=O)c1ccccc1C(=O)O` [XIV], for which the “Relative Activity” value at phthalyl amidase [2] (Table 10, phthalyl amides) came to 118.5.

At phthalyl amidase [2] (Table 9, beta-lactams), `O=C(O)CN1C(=O)C(NC(=O)c2ccccc2)C1CCc1ccco1` (stereo not drawn) [VI] showed a Relative Activity of 0.

On to `NC(=O)C1=CN([C@@H]2O[C@H](COP(=O)(O)OP(=O)(O)OC[C@H]3O[C@@H](n4cnc5c(N)ncnc54)[C@H](OP(=O)(O)O)[C@@H]3O)[C@@H](O)[C@H]2O)C=CC1` [NADPH, reduced form of NADP], for which the “effect on enzyme activity” value on phthalyl amidase [1] (1 mM, iodoacetic acid 10 mM) is recorded as “No organic co-factors, such as ATP, NADPH or others, stimulated enzyme activity”. Take `Nc1ncnc2c1ncn2[C@@H]1O[C@H](COP(=O)(O)OP(=O)(O)OP(=O)(O)O)[C@@H](O)[C@H]1O` [ATP, adenosine 5triphosphate]: the “effect on enzyme activity” value at phthalyl amidase [1] (1 mM, iodoacetic acid 10 mM) is listed as “No organic co-factors, such as ATP, NADPH or others, stimulated enzyme activity”. For the compound `CC(C)CC(NC(=O)c1ccccc1C(=O)O)C(=O)O` (racemic) [XVI], the “Relative Activity” value at phthalyl amidase [2] (Table 10, phthalyl amides) turned out to be 90.2.
